According to PubChem BioAssay (NCI):
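Grown in 96-well plates, cells were treated for 48 hours with each compound at five concentrations. Insufficient inhibition: endpoint recorded as highest concentration tested. The concentration for full growth arrest is given as TGI.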

Legend:
Experiment in all cases: growth of human tumour cells (NCI), 48 h
[1] = system: DU-145 prostate
[2] = system: PC-3 prostate
[3] = system: ACHN renal
[4] = system: LOX IMVI melanoma
[5] = system: COLO 205 colon
[6] = system: RXF 393 renal
[7] = system: NCI/ADR-RES ovarian
[8] = system: CAKI-1 renal
[9] = system: 786-0 renal
[10] = system: SW-620 colon
[11] = system: M14 melanoma
[12] = system: U251 CNS
[13] = system: SK-OV-3 ovarian
[14] = system: UO-31 renal
[15] = system: OVCAR-4 ovarian
[16] = system: MOLT-4 leukemia
[17] = system: SF-268 CNS
[18] = system: SF-539 CNS
[19] = system: NCI-H23 lung
[20] = system: MCF7 breast
[21] = system: CCRF-CEM leukemia
[22] = system: T-47D breast
[23] = system: OVCAR-8 ovarian
[24] = system: NCI-H226 lung
[25] = system: MDA-N
[26] = system: UACC-257 melanoma
[27] = system: SK-MEL-2 melanoma
[28] = system: HCT-116 colon
[29] = system: IGROV1 ovarian
[30] = system: MDA-MB-231 breast
[31] = system: OVCAR-3 ovarian
[32] = system: NCI-H460 lung
[33] = system: SNB-19 CNS
[34] = system: SR leukemia
[35] = system: MALME-3M melanoma
[36] = system: UACC-62 melanoma
[37] = system: HCC-2998 colon
[38] = system: HT29 colon
[39] = system: KM12 colon
[40] = system: SF-295 CNS
[41] = system: NCI-H522 lung
[42] = system: HS 578T breast
[43] = system: A549 NSCLC
[44] = system: OVCAR-5 ovarian
[45] = system: SK-MEL-5 melanoma
[46] = system: HOP-62 NSCLC
[47] = system: EKVX NSCLC
[48] = system: HOP-92 NSCLC
[49] = system: K-562 leukemia
[50] = system: SN12C renal
[51] = system: SNB-75 CNS
[52] = system: HCT-15 colon
[53] = system: SK-MEL-28 melanoma
[54] = system: MDA-MB-435
[55] = system: HL-60(TB) leukemia
[56] = system: A498 renal
[57] = system: RPMI-8226 leukemia
[58] = system: TK-10 renal

O=C1OCC2=C1C(c1ccc3c(c1)OCO3)c1cc3c(cc1O2)OCO3 (stereo not drawn)
TGI [1]: > 58.8 µM | TGI [2]: > 63.7 µM | TGI [3]: > 100 µM | TGI [4]: > 100 µM | TGI [5]: 15.2 µM | TGI [6]: 7.6 µM | TGI [7]: 2.03 µM | TGI [8]: > 100 µM | TGI [9]: > 30.1 µM | TGI [10]: > 100 µM | TGI [11]: 11.4 µM | TGI [12]: > 100 µM | TGI [13]: > 85.2 µM | TGI [14]: > 85.6 µM | TGI [15]: > 100 µM | TGI [16]: > 49.1 µM | TGI [17]: > 100 µM | TGI [18]: 2.81 µM | TGI [19]: > 100 µM | TGI [20]: > 100 µM | TGI [21]: > 30.7 µM | TGI [22]: > 100 µM | TGI [23]: 68.1 µM | TGI [24]: > 100 µM | TGI [25]: 0.368 µM | TGI [26]: > 100 µM | TGI [27]: > 100 µM | TGI [28]: 41.5 µM | TGI [29]: > 100 µM | TGI [30]: > 100 µM | TGI [31]: > 21.3 µM | TGI [32]: > 100 µM | TGI [33]: > 27.2 µM | TGI [34]: 5.19 µM | TGI [35]: > 100 µM | TGI [36]: > 72.6 µM | TGI [37]: 59.3 µM | TGI [38]: 3.54 µM | TGI [39]: > 100 µM | TGI [40]: > 72.2 µM | TGI [41]: 0.533 µM | TGI [42]: 20.8 µM | TGI [43]: > 100 µM | TGI [44]: > 100 µM | TGI [45]: > 100 µM | TGI [46]: > 100 µM | TGI [47]: > 100 µM | TGI [48]: > 100 µM | TGI [49]: 28.8 µM | TGI [50]: > 100 µM | TGI [51]: 11.9 µM | TGI [52]: > 79.1 µM | TGI [53]: > 59.1 µM | TGI [54]: 0.323 µM | TGI [55]: 0.365 µM | TGI [56]: 42.8 µM | TGI [57]: 10.5 µM | TGI [58]: > 100 µM
